For assay [1], the system named is HCT116 parental cells. The assay can be described thus: Proliferation assay (CellTiter-Glo, 10 days) in HCT116 parental cells. The settings on record: CellTiter-Glo after 10 days of treatment. The format is cell-based. The method, then: (§1) Control samples were analyzed in parallel.
Briefly, on Day 0, 250 HCT116 parental or HCT116 homozygous MTAP knockout cell were seeded in 96 well plates in McCoy's 5A supplemented with […] fetal bovine serum and pen/strep and the cells were incubated overnight at 37° C. plus 5% CO2.
The following day, cells were treated with DMSO vehicle control or a dose response of PRMT5 inhibitors and incubated at 37 C plus 5% CO2 for five days. On Day 6, the cells were trypsinized and split 1:10 into new 96-well plates with fresh medium containing the same concentration of PRMT5 inhibitor and incubated for an additional 5 days at 37° C. plus 5% CO^2.
On Day 11, the viability of the cells was measured using a CTG assay kit (CellTiter-Glo; Promega cat.no G7573) in accordance with the manufacturer's instructions. The IC50 values for each compound after 10 days of treatment were calculated using GraphPad PRISM software.

Assay [2] has as its system HCT116 homozygous MTAP knockout cells. The assay can be described thus: Proliferation assay (CellTiter-Glo, 10 days) in HCT116 homozygous MTAP knockout cells. The class given is cell-based. Conditions: CellTiter-Glo after 10 days of treatment, read-out: Proliferation IC50 (nM) HCT116 MTAP_KO. An outline of the steps: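 MTAP-null HCT116 clone made by CRISPR/Cas9 knockout of both alleles, tested beside parental cells. Cells dosed the day after seeding, split 1:10 on day 6 into fresh medium with the same compound level, and read on day 11 by CellTiter-Glo. IC50 taken after 10 days of exposure.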

Assay [3] addresses T1, PRMT5/MEP50 complex (Homo sapiens, UniProt O14744).
T1 construct: purchased Reaction Biology Corporation
Description: PRMT5:MEP50 HotSpot Assay (full-length histone H2A substrate, plus and minus MTA). The class given is biochemical. The settings on record: IC50 + 2 μM MTA, in the presence of 2 μM MTA. An outline of the steps:
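Radiometric HotSpot format using recombinant full-length histone H2A as substrate, run with and without MTA. Reactions were stopped and spotted onto filter paper. Tritiated H2A was quantified by scintillation counting.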

Assay [4] deals with PRMT5-dependent Symmetric Di-methyl Arginine signal in HCT116 parental cells. Description: SYM11 In-Cell Western in HCT116 parental cells. The class given is cell-based. The settings on record: HCT116 parental cells, 4 days of treatment, SYM11/DRAQ5 ratio as percent of DMSO control, read-out: In-cell-Western (SYM11) IC50 (nM) HCT216 parental. The method, then: as §1
Briefly, on Day 0, 2,000 HCT116 parental or HCT116 homozygous MTAP knockout cells were seeded in 96 well plates in McCoy's 5A supplemented with 10% fetal bovine serum and pen/strep and the cells were incubated overnight at 37° C. plus 5% CO2. The following day, cells were treated with DMSO vehicle control or a dose response of PRMT5 inhibitors, and incubated at 37° C. plus 5% CO^2 for four days.
After 4 days of treatment, the cells were fixed by adding 50 μl of 4% paraformaldehyde solution to each well and the cells were incubated for 20 min at room temperature. The paraformaldehyde solution was removed, 150 μl of ice-cold methanol was added and the plate was placed −20° C. for 10 minutes. The methanol was removed, 150 μl of Odyssey Blocking buffer+0.05% Tween20 was added and the plate was incubated at room temperature with shaking for one hour.
The primary SYM11 antibody solution was removed by aspiration and the wells were washed three consecutive times with phosphate buffered saline containing 0.1% Tween-20 (PBST).
The secondary antibody solution was removed by aspiration and the wells were washed three consecutive times with PBST.
The SYM11 signal and the DRAQ5 signal were quantified using a Li-Cor Odyssey machine reading at […], respectively. The SYM11/DRAQ5 ratio was used to calculate the inhibition of Symmetric Dimethyl Arginine as percent of DMSO control.

For assay [5], the system named is PRMT5-dependent Symmetric Di-methyl Arginine signal in HCT116 homozygous MTAP Knockout cells. The assay can be described thus: SYM11 In-Cell Western in HCT116 homozygous MTAP knockout cells. The class given is cell-based. Conditions: 4 days of treatment, SYM11/DRAQ5 ratio as percent of DMSO control, read-out: In-cell-Western (SYM11) IC50 (nM) HCT116 MTAP_KO. An outline of the steps: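 HCT116 cells with CRISPR homozygous MTAP knockout, alongside parental cells, treated four days with PRMT5 inhibitor dose response at 37° C., 5% CO2 in McCoy's 5A with 10% FBS.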

pIC50: −log10 of the molar value. Like-named read-outs stand apart in the source and are kept apart here. Bounds are passed on as bounds.

T1 sequence (O14744 2-637 limits assumed): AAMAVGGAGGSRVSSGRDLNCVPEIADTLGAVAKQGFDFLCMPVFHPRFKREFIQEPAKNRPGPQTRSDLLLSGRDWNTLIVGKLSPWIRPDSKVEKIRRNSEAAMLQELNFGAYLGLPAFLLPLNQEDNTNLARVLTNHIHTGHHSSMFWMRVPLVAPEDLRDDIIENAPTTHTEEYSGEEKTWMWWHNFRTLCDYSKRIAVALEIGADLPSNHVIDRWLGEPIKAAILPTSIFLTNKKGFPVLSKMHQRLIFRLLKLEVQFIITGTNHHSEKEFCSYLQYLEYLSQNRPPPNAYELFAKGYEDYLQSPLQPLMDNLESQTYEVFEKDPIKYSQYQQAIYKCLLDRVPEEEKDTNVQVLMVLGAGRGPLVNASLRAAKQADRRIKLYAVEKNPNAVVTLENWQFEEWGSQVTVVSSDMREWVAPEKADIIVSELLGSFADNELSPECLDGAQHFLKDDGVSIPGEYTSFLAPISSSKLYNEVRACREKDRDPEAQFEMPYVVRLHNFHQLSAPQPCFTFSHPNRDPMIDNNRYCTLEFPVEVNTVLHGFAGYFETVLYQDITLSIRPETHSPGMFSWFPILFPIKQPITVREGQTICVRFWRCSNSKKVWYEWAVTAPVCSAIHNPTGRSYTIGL
T1 sequence (Q9BQA1 2-342 partner limits assumed): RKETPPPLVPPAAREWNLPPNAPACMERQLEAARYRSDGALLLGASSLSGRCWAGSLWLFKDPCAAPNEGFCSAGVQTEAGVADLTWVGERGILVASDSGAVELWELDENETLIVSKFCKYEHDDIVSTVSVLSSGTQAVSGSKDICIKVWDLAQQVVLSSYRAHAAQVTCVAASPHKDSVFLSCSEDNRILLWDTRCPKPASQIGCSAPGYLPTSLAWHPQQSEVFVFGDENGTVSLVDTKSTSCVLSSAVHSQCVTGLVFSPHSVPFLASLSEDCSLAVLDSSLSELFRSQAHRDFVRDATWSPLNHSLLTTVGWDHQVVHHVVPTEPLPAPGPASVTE

Turning to `N#Cc1c(OC2CC2)cc(Cl)c(F)c1-c1c(-c2ccc3c(=O)[nH]nc(CN)c3c2)cnn1C(F)F` (atropisomer, axis not shown; (M)) [Example 16-106, (M)-2-(4-(4-(aminomethyl)-1-oxo-1,2-dihydrophthalazin-6-yl)-1-(difluoromethyl)-1H-pyrazol-5-yl)-4-chloro-6-cyclopropoxy-3-fluorobenzonitrile], the IC50 in assay [1] (Homo sapiens, HCT-116, 240 h) came to 1950 nM; in assay [2] (Homo sapiens, HCT-116, 240 h) it was 11 nM.

Take `Cc1c(F)c(-c2c(-c3ccc4c(=O)[nH]nc(CN)c4c3)cnn2C)c(C#N)c2ccccc12` (single isomer, unassigned) [Example 16-14, (M)-2-[4-[4-(aminomethyl)-1-oxo-2H-phthalazin-6-yl]-2-methyl-pyrazol-3-yl]-3-fluoro-4-methyl-naphthalene-1-carbonitrile]: the pIC50 in assay [3] is 7.91. Moreover, the IC50 in assay [1] is 4400 nM; in assay [2], 8 nM; in assay [4], 378 nM; in assay [5] it was 3 nM.

With `COCc1cc(-c2cnn(C)c2-c2sc3ccccc3c2C#N)cc2c(CN)n[nH]c(=O)c12` [Example 15-5, 2-[4-[4-(aminomethyl)-8-(methoxymethyl)-1-oxo-2H-phthalazin-6-yl]-2-methyl-pyrazol-3-yl]benzothiophene-3-carbonitrile], the IC50 in assay [2] (Homo sapiens, HCT-116, 240 h) turned out to be 23 nM; in assay [4] (Homo sapiens, HCT-116, 96 h), 595 nM; in assay [5] (Homo sapiens, HCT-116, 96 h), 5 nM.

`CC(=O)Nc1cc(-c2cnn(C)c2-c2sc3ccccc3c2C#N)cc2c(CN)n[nH]c(=O)c12` [Example 15-8, N-(1-(aminomethyl)-7-(5-(3-cyano-benzo[b]thiophen-2-yl)-1-methyl-1H-pyrazol-4-yl)-4-oxo-3,4-dihydrophthal-azin-5-yl)acetamide]: the pIC50 in assay [3] is 6.96. Also, the IC50 in assay [1] (Homo sapiens, HCT-116, 240 h) worked out at 155 nM; in assay [2] (Homo sapiens, HCT-116, 240 h), 96 nM; in assay [4] (Homo sapiens, HCT-116, 96 h) it was 720 nM; in assay [5] (Homo sapiens, HCT-116, 96 h), 96 nM.

In the case of `Cn1ncc(-c2cc(C(F)F)c3c(=O)[nH]nc(CN)c3c2)c1-c1sc2ccccc2c1C#N` [Example 10-21, 2-[4-[4-(aminomethyl)-8-(difluoromethyl)-1-oxo-2H-phthalazin-6-yl]-2-methyl-pyrazol-3-yl]benzothiophene-3-carbonitrile], the pIC50 in assay [3] is 8.39. For the same molecule, the IC50 was 35 nM in assay [2] (Homo sapiens, HCT-116, 240 h); above 1000 nM in assay [4] (Homo sapiens, HCT-116, 96 h); 35 nM in assay [5] (Homo sapiens, HCT-116, 96 h).

For the molecule `Cn1ncc(-c2cc([C@H]3CCCO3)c3c(=O)[nH]nc(CN)c3c2)c1-c1sc2ccccc2c1C#N` [Example 15-4, (R)-2-(4-(4-(aminomethyl)-1-oxo-8-(THF-2-yl)-1,2-dihydrophthalazin-6-yl)-1-methyl-1H-pyrazol-5-yl)benzo[b]thiophene-3-carbonitrile], the negative-log IC50 (pIC50) in assay [3] is 6.58. Further, the IC50 in assay [2] (Homo sapiens, HCT-116, 240 h) stood at 1110 nM; in assay [4] (Homo sapiens, HCT-116, 96 h), 551 nM; in assay [5] (Homo sapiens, HCT-116, 96 h), 551 nM.

Take `CCOc1cc(-c2cnn(C)c2-c2c(F)c(C)c3ncc(Cl)cc3c2C#N)cc2c(CN)n[nH]c(=O)c12` (single isomer, unassigned) [Example 16-111, (P)-6-(4-(4-(aminomethyl)-8-ethoxy-1-oxo-1,2-dihydrophthalazin-6-yl)-1-methyl-1H-pyrazol-5-yl)-3-chloro-7-fluoro-8-methylquinoline-5-carbonitrile]: the pIC50 in assay [3] is 6.35. The IC50 in assay [1] (Homo sapiens, HCT-116, 240 h) is 57 nM; in assay [2] (Homo sapiens, HCT-116, 240 h), 21 nM; in assay [4] (Homo sapiens, HCT-116, 96 h), 686 nM; in assay [5] (Homo sapiens, HCT-116, 96 h) it was 344 nM.

Regarding `Cn1ncc(-c2ccc3c(=O)[nH]nc(CN)c3c2)c1-c1c(F)cc2ccccc2c1C#N` (single isomer, unassigned) [Example 16-1], the pIC50 in assay [3] was 7.42. The results for the IC50 in assay [1] and in assay [4] were 757 nM and 316 nM, respectively.

As to `COCc1nc2sc(-c3c(-c4ccc5c(=O)[nH]nc(CN)c5c4)cnn3C)c(C#N)c2cc1Cl` [Example 4-272, 2-(4-(4-(aminomethyl)-1-oxo-1,2-dihydrophthalazin-6-yl)-1-methyl-1H-pyrazol-5-yl)-5-chloro-6-(methoxymethyl)thieno[2,3-b]pyridine-3-carbonitrile], in assay [3], the pIC50 was 6.59. Also, the IC50 in assay [1] (Homo sapiens, HCT-116, 240 h) is above 10000 nM; in assay [2] (Homo sapiens, HCT-116, 240 h) it was 245 nM; in assay [4] (Homo sapiens, HCT-116, 96 h), above 1000 nM; in assay [5] (Homo sapiens, HCT-116, 96 h) it was 55 nM.

With `Cn1ncc(-c2ccc3c(=O)[nH]nc(CN)c3c2)c1-c1c(F)cc2ccccc2c1C#N` (single isomer, unassigned) [Example 16-2], the pIC50 in assay [3] was 6.95. The IC50 in assay [1] was 5920 nM; in assay [2] (Homo sapiens, HCT-116, 240 h), 224 nM; in assay [4], above 1000 nM; in assay [5] it was 73 nM.

`Cn1ncc(-c2ccc3c(=O)[nH]nc(CN)c3c2)c1-c1c(F)ccc(OC2CC2)c1C#N` (single isomer, unassigned) [Example 16-22, (M)-2-[4-[4-(aminomethyl)-1-oxo-2H-phthalazin-6-yl]-2-methyl-pyrazol-3-yl]-6-(cyclopropoxy)-3-fluoro-benzonitrile]: the pIC50 in assay [3] was 6.97. Besides, the IC50 in assay [1] was found to be 3620 nM; in assay [2], 17 nM; in assay [4], 1060 nM; in assay [5], 4 nM.

Consider `Cc1cc(-c2cnn(C)c2-c2sc3ccccc3c2C#N)cc2c(CN)n[nH]c(=O)c12` [Example 10-23, 2-[4-[4-(aminomethyl)-8-methyl-1-oxo-2H-phthalazin-6-yl]-2-methyl-pyrazol-3-yl]benzo-thiophene-3-carbonitrile], for which the pIC50 in assay [3] was 6.90. The IC50 in assay [2] (Homo sapiens, HCT-116, 240 h) was 30 nM; in assay [4] (Homo sapiens, HCT-116, 96 h), above 1000 nM; in assay [5] (Homo sapiens, HCT-116, 96 h), 15 nM.

Take `CCOc1cc(-c2cnn(C)c2-c2c(F)c(C)c3cc(Cl)cnc3c2C#N)cc2c(CN)n[nH]c(=O)c12` (single isomer, unassigned) [Example 16-100, (M)-7-(4-(4-(aminomethyl)-8-ethoxy-1-oxo-1,2-dihydrophthalazin-6-yl)-1-methyl-1H-pyrazol-5-yl)-3-chloro-6-fluoro-5-methylquinoline-8-carbonitrile]: the pIC50 in assay [3] is 5.97. Further, the IC50 in assay [1] (Homo sapiens, HCT-116, 240 h) is above 10000 nM.

`Cn1ncc(-c2cc([C@@H]3CCCO3)c3c(=O)[nH]nc(CN)c3c2)c1-c1sc2ccccc2c1C#N` [Example 15-3, (S)-2-(4-(4-(aminomethyl)-1-oxo-8-(THF-2-yl)-1,2-dihydrophthalazin-6-yl)-1-methyl-1H-pyrazol-5-yl)benzo[b]thiophene-3-carbonitrile]: in assay [3], the pIC50 was 7.79. Further, the IC50 in assay [2] (Homo sapiens, HCT-116, 240 h) is 22 nM; in assay [4] (Homo sapiens, HCT-116, 96 h), 330 nM; in assay [5] (Homo sapiens, HCT-116, 96 h) it was 6 nM.
